From patent US8992933B2, “Methods for activating T cells and modulating an immune response” (New York University, priority 2011, dated 2015) come the findings set out here.

Holding throughout (format): cell-based, human
One data set concerns CCR6+ TM cells. The data set is described as follows: PI-3K/Akt inhibitor treatment of IL-7-cultured CCR6+ TM cells, cytokine production after PMA and ionomycin.
The subject of the next data set is Akt phosphorylation. As to the kind of experiment: Intracellular phospho-Akt (Ser473) staining. How it is done:
(§1) Cells were stained as previously described (Oswald-Richter, et al., PLoS Pathogens 2007; 3: e58). For intracellular staining, T cell cultures were stimulated for 5 hours at 37° C. with PMA and Ionomycin and Golgistop (BD Biosciences). Stimulated cells were washed with PBS and stained with Fixable Viability Dye eFluor450 (eBioscience) to gate on live cells. Cells were then fixed and permeabilized by commercially available Foxp3 intracellular staining kit (eBioscience) or cytofix/cytoperm kit (BD Biosciences) as per manufacturer's protocol. Antibodies used for surface and intracellular staining included: CD45RO-[…]3), PE Cy7 or A700; […] IL-17A (IL-17)-Pacific Blue (Clone BL168), FITC or Percp Cy5.5; […]) or APC (eBioscience); […] FOXO1 rabbit monoclonal antibody; phospho-AKT ([…])-Alexa Fluor 488; Rabbit IgG isotype control-Alexa Fluor 488 (Cell Signaling, Danvers, Mass.); and CCR6-biotin (BD Biosciences). Secondary antibodies used were: Streptavidin-APC or […]5.5 (BD Biosciences), Goat anti mouse-APC (BD Biosciences), anti rabbit-Alexa 647 (Molecular Probes). All data were acquired on LSRII instrument (BD Biosciences) using FACSDiva software. Data analyses were done using Flowjo software (Treestar Inc, Ashland, Oreg.). For phospho-Akt staining, Jurkat cells were fixed with BD Cytofix buffer (BD Biosciences) pre-warmed to 37° C. for 10 minutes. […]

A further data set relates to TM cells. As to the kind of experiment: Cell viability under PI-3K/Akt inhibitor treatment. The settings on record: 1-10 μg/mL. Here is the method:
as §1

The subject of a further data set is Klf2. As to the kind of experiment: Klf2 mRNA by RT-qPCR in TM cells. To be noted: IL-2 medium 2 weeks, inhibitor for 2 days. Here is the method: Peripheral Blood Mononuclear Cells (PBMCs) from healthy individuals (New York Blood Center, New York, N.Y.) were prepared using Ficoll-paque plus (GE Amersham, Uppsala, Sweden). Whole blood samples from rheumatoid arthritis patients were purchased from Bioreclamation (New York, N.Y.) and were processed similar to healthy donor blood. All healthy donor and patient samples were consented prior to purchase, were none-identifiable and approved by institutional human subjects board. CD4^+ T cells were isolated using Dynal CD4 Positive Isolation Kit (Invitrogen, Carlsbad, Calif.) directly from purified PBMCs and were >99% pure. […] TM cells were activated either by anti-CD3 and anti-CD28 (aCD3/aCD28) coated beads (1:4 beads:cells ratio) for 18-24 hours, or by Phorbol 12-myristate 13-acetate (PMA) and ionomycin for 4 hours and further FACS sorted based on CCR6 and IL-17 expression into CCR6^− IL-17^−, CCR6^+IL-17^+, or CCR6^+IL-17^− subsets (as determined by secretion assay labeling, see below). […]
Purified T cells (1×10^5) were snap frozen in liquid nitrogen for total RNA isolation. […] The extracted RNA was then reverse transcribed into cDNA and quantified using Taqman Cell to CT kit (Applied Biosystems, Carlsbad, Calif.). […] Data was acquired and analyzed on ABI 7500 sequence detection system. […]
Background: In qPCR the cycle at which signal appears reflects the starting amount.

Another data set relates to Rorc and Foxp3. As to the kind of experiment: Rorc and Foxp3 mRNA by RT-qPCR in CCR6+/- cells. The settings on record: IL-7 medium 7 days, then inhibitor for 2 days. Here is the method:
Peripheral Blood Mononuclear Cells (PBMCs) from healthy individuals (New York Blood Center, New York, N.Y.) were prepared using Ficoll-paque plus (GE Amersham, Uppsala, Sweden). Whole blood samples from rheumatoid arthritis patients were purchased from Bioreclamation (New York, N.Y.) and were processed similar to healthy donor blood. All healthy donor and patient samples were consented prior to purchase, were none-identifiable and approved by institutional human subjects board. […] Sorted cells (>99% pure) were cultured in serum-free Xvivo-15 medium (Lonza, Wakersville, Md.) at 37° C. and 5% CO2 for 6-7 days prior to restimulation with PMA and ionomycin (see below). […]). […] In the experiments using PI-3K signaling inhibitors, cells were treated with PI-3K specific inhibitor, LY294002 (EMD, Gibbstown, N.J.), or Akt specific inhibitor, AKTi-1/2 (EMD), for 2 days before PMA and Ionomycin restimulation. Purified T cells (1×10^5) were snap frozen in liquid nitrogen for total RNA isolation. […] The extracted RNA was then reverse transcribed into cDNA and quantified using Taqman Cell to CT kit (Applied Biosystems, Carlsbad, Calif.). […] Data was acquired and analyzed on ABI 7500 sequence detection system. Quantitative real-time PCR data was analyzed by normalizing Ct values of genes of interest to the Ct values of the housekeeping gene b-Actin.

[1] abbreviates: one week in IL-7, then inhibitor for 48 hours.

Procedure for CCR6+ TM cells: Peripheral Blood Mononuclear Cells (PBMCs) from healthy individuals (New York Blood Center, New York, N.Y.) were prepared using Ficoll-paque plus (GE Amersham, Uppsala, Sweden). […] All healthy donor and patient samples were consented prior to purchase, were none-identifiable and approved by institutional human subjects board. CD4^+ T cells were isolated using Dynal CD4 Positive Isolation Kit (Invitrogen, Carlsbad, Calif.) directly from purified PBMCs and were >99% pure. CD4^+ T cells were sorted by FACS ARIA cell sorter (BD, San Jose, Calif.) into CD45RO^+ CD25^− memory T (TM) cells. TM cells were activated either by anti-CD3 and anti-CD28 (aCD3/aCD28) coated beads (1:4 beads:cells ratio) for 18-24 hours, or by Phorbol 12-myristate 13-acetate (PMA) and ionomycin for 4 hours and further FACS sorted based on CCR6 and IL-17 expression into CCR6^− IL-17^−, CCR6^+IL-17^+, or CCR6^+IL-17^− subsets (as determined by secretion assay labeling, see below). Sorted cells (>99% pure) were cultured in serum-free Xvivo-15 medium (Lonza, Wakersville, Md.) at 37° C. and 5% CO2 for 6-7 days prior to restimulation with PMA and ionomycin (see below). Culture conditions included: 10 U/mL recombinant human IL-2, (BD Biosciences, San Jose, Calif.), 20 ng/mL IL-7, 20 ng/mL IL-15, or 20 ng/mL IL-23 (all from R&D Systems, Minneapolis, Minn.). […] In the experiments using PI-3K signaling inhibitors, cells were treated with PI-3K specific inhibitor, LY294002 (EMD, Gibbstown, N.J.), or Akt specific inhibitor, AKTi-1/2 (EMD), for 2 days before PMA and Ionomycin restimulation.
Cells were stained as previously described (Oswald-Richter, et al., PLoS Pathogens 2007; 3: e58). For intracellular staining, T cell cultures were stimulated for 5 hours at 37° C. with PMA and Ionomycin and Golgistop (BD Biosciences). Stimulated cells were washed with PBS and stained with Fixable Viability Dye eFluor450 (eBioscience) to gate on live cells. Cells were then fixed and permeabilized by commercially available Foxp3 intracellular staining kit (eBioscience) or cytofix/cytoperm kit (BD Biosciences) as per manufacturer's protocol. Antibodies used for surface and intracellular staining included: CD45RO-FITC; CD25-PE; IFN-γ-FITC (clone 4S. B3), PE Cy7 or A700; IL-4-APC or PE; IL-17A (IL-17)-Pacific Blue (Clone BL168), FITC or Percp Cy5.5; IL-10-APC (Biolegend); IL-22-PE (R&D) or APC (eBioscience); IL-21-PE (clone 22URT1, eBioscience); FOXO1 rabbit monoclonal antibody; phospho-AKT (Ser473)-Alexa Fluor 488; Rabbit IgG isotype control-Alexa Fluor 488 (Cell Signaling, Danvers, Mass.); and CCR6-biotin (BD Biosciences). Secondary antibodies used were: Streptavidin-APC or PercpCy5.5 (BD Biosciences), Goat anti mouse-APC (BD Biosciences), anti rabbit-Alexa 647 (Molecular Probes). […]

As to `O=c1[nH]c2ccccc2n1C1CCN(Cc2ccc(-c3nc4cc5nc[nH]c5cc4nc3-c3ccccc3)cc2)CC1` [AKTi-1/2], in the data set on CCR6+ TM cells (5 μg/ml, Day 10), the “IL-17 and IL-22 production induced by IL-7 from CCR6+ TM cells” value was “suppresses”. In the data set with CCR6+ TM cells (setting [1]), the “expression of IFNγ” value is recorded as “not affected” and the “expression of IL-4” value is “less reduced”. Also, the “γc-mediated IL-17/IL-22 induction” value in the data set with CCR6+ TM cells (one week in IL-7, then inhibitor for 48 hours, dose-dependent) is given as “repressed”. Also, the “Akt phosphorylation (Ser473) in Jurkat cells” value with Akt phosphorylation (Jurkat T cells treated for 30 minutes) is “Inhibition of Akt phosphorylation”. The “cytokine-dependent phosphorylation of Akt” value in the data set on Akt phosphorylation (TM cells, 1-10 μg/mL) is “downregulated”. In addition, the cell viability entry in the data set on TM cells is given as “without adversely affecting cell viability”. Also, in the data set on Klf2, the “Klf2 message expression in aCD3/aCD28-activated CCR6+ TM cells expanded in IL-2” value is “upregulates”. Besides, the “Rorc and Foxp3 transcripts” value with Rorc and Foxp3 is “not affected”.
